Results as given in patent publication US20230340498A1, “COMPOSITIONS AND METHODS FOR INDUCIBLE ALTERNATIVE SPLICING REGULATION OF GENE EXPRESSION” (The Children's Hospital of Philadelphia, priority 2020, published 2023).

Key:
[1] = test system: Ai14 reporter genomic locus; experiment: In vivo AAVPHPeB SF3B3.Xon SaCas9 editing of Ai14 reporter locus in brain; settings: Ai14 mice, tdTomato expression
Text: To assess the applicability of Xon for brain targeted therapies, the SF3B3.Xon was packaged into AAVPHPeB vector to control the expression of SaCas9 protein and delivered to transgenic Ai14 reporter mice and BacHD mice (FIGS. 9A, 9C).

SMN2-on minigene = experiment: SMN2-on cassette Firefly luciferase reporter assay in transfected HEK293 cells; assay type: cell-based, Human
Procedure: Cell culture, transfection, and LMI070/RG7800 treatment. Human embryonic kidney (HEK293) cells (obtained from CHOP Research Vector Core stock) were maintained in DMEM media containing 10% Fetal Bovine Serum (FBS), 1% L-Glutamine and 1% penicillin/streptomycin at 37° C. with 5% CO2. Cells were cultured in 24 well plates and transfected at 80-90% confluence using Lipofectamine 2000 transfection reagent, according to the manufacturer’s protocol. For all experiments, 4 hours after plasmid transfection, cells were treated with LMI070 (MedChemExpress, HY-19620, suspended in DMSO) or RG7800 (MedChemExpress, HY-101792A, suspended in H2O) at the indicated concentrations. Cells were tested for mycoplasma by Research Vector Core. None of the cells used in the study were listed in ICLAC database of commonly misidentified cell lines.
In vitro luciferase assays. HEK293 cells were cultured in DMEM (10% FBS (v/v), 1% Pen/ Strep (v/v), and 1% L-glutamine (v/v) in a 24-well plate. At 70%-80% confluence, cells were co-transfected with the Xon.Firefly luciferase cassettes (0.3 µg/well) and a SV40p-Renilla luciferase cassette as transfection control (0.02 µg/well). Four hours after transfections cells were treated either with LMI070 or RG7800 at indicated concentrations. At 24 h after transfection, cells were rinsed with ice-cold PBS and Renilla and Firefly luciferase activities were assessed using the Dual-Luciferase Reporter Assay System (Promega) according to the manufacturer’s instructions. Luminescent readouts were obtained with a Monolight 3010 luminometer (Pharmigen). Relative light units (RLUs) were calculated as the quotient of […] RLUs and results expressed relative to mock treated control cells.
For this, SMN2-on cassettes were generated to provide drug-induced reporter gene expression. HEK293 cells were transfected with the SMN2-on expression cassettes and luciferase activity evaluated in response to varying doses of LMI070 or RG7800. […]

[2] = test system: Ai14 reporter genomic locus; experiment: In vivo AAV8.Xon.SaCas9 editing of Ai14 reporter locus in liver; settings: Ai14 mice, PCR and tdTomato expression
Text: To assess the applicability of Xon for liver targeted therapies, AAV8.Xon.Epo and AAV8.Xon.SaCas9 vectors were generated and delivered to C57Bl6 and Ai14 reporter mice, respectively (FIGS. 7A, 7C, 7F).

SMILES: CC1(C)CC(Oc2ccc(-c3ccc(-c4cn[nH]c4)cc3O)nn2)CC(C)(C)N1 [LMI070, 5-(1H-Pyrazol-4-yl)-2-(6-((2,2,6,6-tetramethylpiperidin-4-yl)oxy)pyridazin-3-yl)phenol]
- editing of the Ai14 reporter genomic locus (brain) [1]: only observed on mice treated with LMI070
- luciferase activity from the SMN2-on minigene (SMN2-on minigene; HEK293 cells, varying doses): induced luciferase activity
- overall induction of luciferase, refined SMN2-on switch system (SMN2-on minigene; indSMN2 cassette, relative to DMSO treated cells (FIG. 1E: LMI070 100 nM)): approximately 20 fold
- editing of the Ai14 reporter genomic locus (liver) [2]: only observed on mice injected with AAV8.Xon.SaCas9 virus and treated with LMI070
